Results as given in patent US20220152100A1, “METHODS FOR CONTROLLED ACTIVATION OR ELIMINATION OF THERAPEUTIC CELLS” (Bellicum Pharmaceuticals, Inc., priority 2014, published 2022).
Several values for one entry are separate records, joined by “and”; a condition that tells them apart may be missing. Equal values may be shown once.

Key:
[1] = test system: human CD3+/GFP+ T cells; test: SCID mouse-human xenograft: elimination of iCasp9M-transduced CTLs in tumors; assay type: in vivo, NOD/SCID mice; settings: single dose 50 μg intraperitoneally, versus carrier, 3 days after
Description: Non-obese diabetic severe combined immunodeficient (NOD/SCID) mice, 6 to 8 weeks of age, were irradiated (250 rad) and injected subcutaneously in the right flank with 10×10^6 to 15×10^6 LCLs resuspended in Matrigel (BD Bioscience). Two weeks later mice bearing tumors that were approximately 0.5 cm in diameter were injected into the tail vein with a 1:1 mixture of nontransduced and iCasp9.I.GFPhigh-transduced EBV CTLs (total 15×10^6). At 4 to 6 hours prior and 3 days after CTL infusion, mice were injected intraperitoneally with recombinant hIL-2 (2000 U; Proleukin; Chiron). […] By FACS analysis, the number of GFP+ cells within the gated CD3^+ population was evaluated. […]
The function of iCasp9M also was evaluated in transduced EBV-CTLs in vivo. […] Three days after CID/carrier administration, tumors were analyzed for human CD3^+/GFP^+ cells. […]
The function of iCasp9M in vivo, was assayed. […] On day 3 after CTL administration, mice received either CID (50 μg AP20187; (black diamonds, n=6) or carrier only (black squares, n=5) and on day 6 the presence of human CD3+/GFP+ T cells in the tumors was analyzed. Human CD3+ T cells isolated from the tumors of a control group of mice that received only nontransduced CTLs (15×10^6 CTLs; n=4) were used as a negative control for the analysis of CD3+/GFP+ T cells within the tumors.

[2] = test system: EBV-specific and CMV-specific T cells; test: Pentamer analysis of virus-specific T cells after dimerizer; assay type: cell-based, human; settings: 10 nM after 4 days reactivation with allogeneic PBMC
[3] = test system: MSCs; test: CID-induced apoptosis of iCasp9-ΔCD19 transduced undifferentiated MSCs
[4] = test system: EBV-specific CTL lines (EBV-CTL); test: CID-induced elimination/apoptosis of transduced EBV-CTLs (GFP, annexin V/7-AAD flow cytometry); assay type: cell-based, human; settings: for elimination of GFP+ cells: GFPhigh
[5] = test system: MT-2; test: CID-induced apoptosis (annexin V) in transduced MT-2 cells; assay type: cell-based, human; settings: 8 hours
[6] = test system: differentiated MSCs; test: CID-induced apoptosis of differentiated MSC progeny (TUNEL, cell density); settings: adipocytic differentiated iCasp9-positive cells, 50 nM, 24 hours; from 584
[7] = T cells selected for high expression, overnight 10 nM

SMILES: CC[C@H](C(=O)N1CCCC[C@H]1C(=O)O[C@H](CCc1ccc(OC)c(OC)c1)c1cccc(OCC(=O)NCC(CNC(=O)COc2cccc([C@@H](CCc3ccc(OC)c(OC)c3)OC(=O)[C@@H]3CCCCN3C(=O)[C@@H](CC)c3cc(OC)c(OC)c(OC)c3)c2)CN(C)C)c1)c1cc(OC)c(OC)c(OC)c1 [AP20187]
- reduction in the number of human CD3+/GFP+ T cells in tumors [1]: > 99%
- effect on virus-specific T cells (HLA pentamers, EBV and CMV) [2]: spares (and thereby enriches) viral reactive subpopulations
- apoptosis index ([3]; iCasp9-negative MSCs, 50 nM, 24 hrs, listed as CID): 20±7% and 19%
- apoptotic death ([3]; iCasp9-positive MSCs, 50 nM, 24 hrs): 93±1%
- apoptotic cells ([3]; magnetically immunoselected iCasp9-CD19-positive MSCs): More than 95%
- annexin positive cells ([3]; non-transduced control MSC (Control/CID), 50 nM): 15%
- concentration sufficient to obtain the maximal deletion effect ([4]; F-Casp9M.I.GFPhigh, survival of GFP+ cells on day 7): 1 nM
- time to apoptotic characteristics (cell shrinkage and fragmentation) ([4]; GFPhigh-selected cells, 10 nM): ≤ 14 h
- deletion of transduced cells ([4]; GFPhigh-selected iCasp9M cells, 10 nM, day 7): 99.1%
- apoptotic (annexin-V+/7-AAD−) phenotype [4, 7]: 64%
- necrotic (annexinV+/7-AAD+) phenotype [4, 7]: 30%
- reduction in mean fluorescence intensity of GFP in surviving CTLs ([4]; iCasp9M-transduced CTLs after CID): 70%
- elimination of GFP+ cells ([4]; iCasp9M-transduced CTLs, 10 nM, day 7): 99.2%+/−0.14
- elimination of GFP+ cells ([4]; iFas-transduced CTLs, 10 nM, day 7): 89.3%+/−4.9
- apoptotic cells (annexin-V) ([5]; iCasp9M-transduced MT-2, 10 nM): 57.9%+/−11.9
- apoptotic cells (annexin-V) ([5]; iFas-transduced MT-2, 10 nM): 19.3%+/−8.4
- cell density [6]: < 14 cells/mm2
